Laboratory results: paper PMC4640093, “Lipophilic prodrugs of nucleoside triphosphates as biochemical probes and potential antivirals” (Nature Communications, 2015)

Assays:
pig liver esterase (PLE) = experiment: Enzymatic hydrolysis with pig liver esterase (PLE) in PBS; assay type: in vitro ADME; settings: PLE in PBS pH 7.3, 37 °C; for t1/2(1) PLE: removal of first masking unit (half-lives of 3); for t1/2(2) PLE: second hydrolysis step, half-lives of intermediate 4
Procedure: Furthermore, 140 μl of the 6.0 mM solution was diluted with 105 μl DMSO-d6 and 700 μl 50 mM PBS buffer. The reaction was started by addition of 52.5 μl of PLE in PBS buffer (3 mg ml^−1) and the mixture was incubated at 37 °C in a thermomixer. At different times, aliquots (125 μl) were taken and treated as follows: (a) for 3a–g,l,m and 4a,e the reaction was stopped by addition to 132.5 μl MeOH. […] (b) For 3h,i,k,n and 4j, the sample was directly frozen in liquid nitrogen.

[1] = Chemical hydrolysis in PBS, pH 7.3; assay type: physicochemical; settings: PBS pH 7.3, 37 °C; for t1/2(1) PBS, pH=7.3: removal of first masking unit (half-lives of 3); for t1/2(2) PBS, pH=7.3: second hydrolysis step, half-lives of intermediate 4 to give d4TTP 19
Procedure: Stock solutions (50 mM in DMSO-d6) of the appropriate compounds were prepared. After dilution of 11 μl with 100 μl Millipore water and 189 μl DMSO-d6 to 1.9 mM hydrolysis solutions the reaction was started by the addition of 300 μl PBS (50 mM, pH 7.3). The solution was incubated at 37 °C in a thermomixer. An initial aliquot (25 μl) was taken directly and analysed by analytical HPLC at 265–266 nm. Further aliquots were taken for monitoring the kinetic hydrolysis. The exponential decay curves (pseudo-first order) based on absolute integral values were calculated with commercially available software (OriginPro 9.0G) and yielded the half-lives t1/2(1) and t1/2(2) of the prodrugs via one determination.

CD4+ T-cell (CEM) = experiment: Cytotoxicity: inhibition of CEM cell proliferation; assay type: cell-based, human; settings: 50% cytostatic concentration, mean±s.d., n=2–3
[2] = Enzyme-catalysed hydrolysis in CEM cell extracts; settings: for t1/2(1) CEM: human CEM cell extract, 37 °C
Procedure: The hydrolysis mixtures were analysed by means of analytical RP-18-HPLC.
A volume of 10 μl of the appropriate 50 mM DMSO-d6 stock solution was diluted to 6.0 mM hydrolysis solution by addition of 73.3 μl DMSO-d6. Seven different samples including 10 μl water and 10 μl hydrolysis solution were prepared. The reaction was started by addition of 50 μl human CEM cell extract and the mixture was incubated at 37 °C for different time periods of hydrolysis. The work-up depended on the particular compound: (a) for 3a–f,l,m,p and 4a,e the reactions were stopped by addition of 150 μl MeOH. The solution was kept on ice for 5 min followed by centrifugation for 5 min (13,000 r.p.m.). The supernatants were filtered (Chromafil RC-20/15 MS, 0.2 μm) and stored in liquid nitrogen. (b) For 3g–i,k,n and 4j, the samples were directly frozen in liquid nitrogen. The solution was defrosted followed by ultrasonication for 10 min. After centrifugation for 5 min the supernatants were filtered (Chromafil AO-20/3, 0.2 μm) and stored at −196 °C. (c) For 3j the mixture was diluted with 70 μl THF (HPLC grade) and frozen in liquid nitrogen followed by defrosting, ultrasonication, centrifugation, filtration and stored as described for (b). Samples were defrosted and 50–80 μl were subjected to HPLC analysis.
Human CD4^+ T-lymphocyte CEM cells were grown in RPMI-1640-based cell culture medium to a final density of ∼3·10^6 cells ml^−1. Then, cells were centrifuged for 10 min at 1,250 r.p.m. at 4 °C, washed twice with cold PBS and the pellet was resuspended at 10^8 cells ml^−1 and sonicated (Hielscher Ultrasound Techn., 100% amplitude, three·times for 10 s) to destroy cell integrity. The resulting cell suspension was then centrifuged at 10,000 r.p.m. to remove cell debris, and the supernatant divided into aliquots before being frozen at −80 °C and used.

HIV-2(ROD) [3] = experiment: Anti-HIV activity assay, HIV-2 in wild-type CEM/0 cells; assay type: cell-based; settings: wild-type CEM cells, HIV-induced giant cell formation; mean±s.d., n=2–3; read-out: EC50 CEM HIV-2
Procedure: (§1) Inhibition of HIV-1(IIIB)- and HIV-2(ROD)-induced cytopathicity in wild-type CEM/0 and TK-deficient CEM/TK^− cell cultures was measured in microtitre 96-well plates containing ∼3 × 10^5 CEM cells ml^−1 infected with 100 CCID50 of HIV per millilitre and containing appropriate dilutions of the test compounds. After 4−5 days of incubation at 37 °C in a CO2-controlled humidified atmosphere, CEM giant (syncytium) cell formation was examined microscopically. The EC50 (50% effective concentration) was defined as the compound concentration required to inhibit HIV-induced giant cell formation by 50%.

HIV-2(ROD) [4] = experiment: Anti-HIV activity assay, HIV-2 in TK-deficient CEM/TK− cells; assay type: cell-based; settings: thymidine kinase-deficient CEM/TK− cells; mean±s.d., n=2–3
Procedure: as §1

HIV-1(IIIB) = experiment: Anti-HIV activity assay, HIV-1 in wild-type CEM/0 cells; assay type: cell-based; settings: HIV-induced giant cell formation, mean±s.d., n=2–3
Procedure: as §1

CC(=O)Oc1ccc(COP(=O)(OCc2ccc(OC(C)=O)cc2)OP(=O)(O)OP(=O)(O)OC[C@@H]2C=C[C@H](n3cc(C)c(=O)[nH]c3=O)O2)cc1 [3a, γ-Bis-(4-acetyloxybenzyl)-d4TTP]
t1/2(1) PLE (pig liver esterase (PLE)): 1.9 h
t1/2(2) PLE (pig liver esterase (PLE)): 71 h
t1/2(1) PBS, pH=7.3 [1]: 18 h
t1/2(2) PBS, pH=7.3 [1]: 75 h
CC50 (CD4+ T-cell (CEM)): 63 ± 2 µM
t1/2(1) CEM [2]: 0.050 h
EC50 (HIV-2(ROD) [3]): 0.72 ± 0.16 µM
EC50 (HIV-2(ROD) [4]): > 10 µM
EC50 (HIV-1(IIIB)): 0.43 ± 0.25 µM

CCC(=O)Oc1ccc(COP(=O)(OCc2ccc(OC(=O)CC)cc2)OP(=O)(O)OP(=O)(O)OC[C@@H]2C=C[C@H](n3cc(C)c(=O)[nH]c3=O)O2)cc1 [3b, γ-Bis-(4-propanoyloxybenzyl)-d4TTP]
t1/2(1) PLE (pig liver esterase (PLE)): 0.42 h
t1/2(2) PLE (pig liver esterase (PLE)): 33 h
t1/2(1) PBS, pH=7.3 [1]: 17 h
t1/2(2) PBS, pH=7.3 [1]: 150 h
CC50 (CD4+ T-cell (CEM)): 57 ± 6 µM
t1/2(1) CEM [2]: 0.12 h
EC50 (HIV-2(ROD) [3]): 1.16 ± 0.15 µM
EC50 (HIV-2(ROD) [4]): > 10 µM
EC50 (HIV-1(IIIB)): 0.46 ± 0.21 µM

CCCCC(=O)Oc1ccc(COP(=O)(OCc2ccc(OC(=O)CCCC)cc2)OP(=O)(O)OP(=O)(O)OC[C@@H]2C=C[C@H](n3cc(C)c(=O)[nH]c3=O)O2)cc1 [3c, γ-Bis-(4-pentanoyloxybenzyl)-d4TTP]
t1/2(1) PLE (pig liver esterase (PLE)): 0.063 h
t1/2(2) PLE (pig liver esterase (PLE)): 7.7 h
t1/2(1) PBS, pH=7.3 [1]: 22 h
t1/2(2) PBS, pH=7.3 [1]: 270 h
CC50 (CD4+ T-cell (CEM)): 58 ± 3 µM
t1/2(1) CEM [2]: 0.43 h
EC50 (HIV-2(ROD) [3]): 1.05 ± 0.3 µM
EC50 (HIV-2(ROD) [4]): > 10 µM
EC50 (HIV-1(IIIB)): 0.4 µM

CCCCCCC(=O)Oc1ccc(COP(=O)(OCc2ccc(OC(=O)CCCCCC)cc2)OP(=O)(O)OP(=O)(O)OC[C@@H]2C=C[C@H](n3cc(C)c(=O)[nH]c3=O)O2)cc1 [3d, γ-Bis-(4-heptanoyloxybenzyl)-d4TTP]
t1/2(1) PLE (pig liver esterase (PLE)): 0.013 h
t1/2(2) PLE (pig liver esterase (PLE)): 1.6 h
t1/2(1) PBS, pH=7.3 [1]: 26 h
t1/2(2) PBS, pH=7.3 [1]: 350 h
CC50 (CD4+ T-cell (CEM)): 74 ± 2 µM
t1/2(1) CEM [2]: 0.98 h
EC50 (HIV-2(ROD) [3]): 0.94 ± 0.16 µM
EC50 (HIV-2(ROD) [4]): 10 µM
EC50 (HIV-1(IIIB)): 0.36 ± 0.06 µM

CCCCCCCCCC(=O)Oc1ccc(COP(=O)(OCc2ccc(OC(=O)CCCCCCCCC)cc2)OP(=O)(O)OP(=O)(O)OC[C@@H]2C=C[C@H](n3cc(C)c(=O)[nH]c3=O)O2)cc1 [3f, γ-Bis-(4-decanoyloxybenzyl)-d4TTP]
t1/2(1) PLE (pig liver esterase (PLE)): 0.082 h
t1/2(2) PLE (pig liver esterase (PLE)): 3.0 h
t1/2(1) PBS, pH=7.3 [1]: 44 h
t1/2(2) PBS, pH=7.3 [1]: 350 h
CC50 (CD4+ T-cell (CEM)): 34 ± 5 µM
t1/2(1) CEM [2]: 2.8 h
EC50 (HIV-2(ROD) [3]): 0.33 ± 0.03 µM
EC50 (HIV-2(ROD) [4]): 0.5 ± 0.14 µM
EC50 (HIV-1(IIIB)): 0.25 ± 0.07 µM

CCCCCCCCCCCC(=O)Oc1ccc(COP(=O)(OCc2ccc(OC(=O)CCCCCCCCCCC)cc2)OP(=O)(O)OP(=O)(O)OC[C@@H]2C=C[C@H](n3cc(C)c(=O)[nH]c3=O)O2)cc1 [3g, γ-Bis-(4-dodecanoyloxybenzyl)-d4TTP]
t1/2(1) PLE (pig liver esterase (PLE)): 0.95 h
t1/2(2) PLE (pig liver esterase (PLE)): 8.3 h
t1/2(1) PBS, pH=7.3 [1]: 68 h
t1/2(2) PBS, pH=7.3 [1]: 410 h
CC50 (CD4+ T-cell (CEM)): 26 µM
t1/2(1) CEM [2]: 2.2 h
EC50 (HIV-2(ROD) [3]): 0.27 ± 0.06 µM
EC50 (HIV-2(ROD) [4]): 0.72 ± 0.16 µM
EC50 (HIV-1(IIIB)): 0.21 ± 0.01 µM

CCCCCCCCCCCCCC(=O)Oc1ccc(COP(=O)(OCc2ccc(OC(=O)CCCCCCCCCCCCC)cc2)OP(=O)(O)OP(=O)(O)OC[C@@H]2C=C[C@H](n3cc(C)c(=O)[nH]c3=O)O2)cc1 [3h, γ-Bis-(4-tetradecanoyloxybenzyl)-d4TTP]
t1/2(1) PLE (pig liver esterase (PLE)): 30 h
t1/2(1) PBS, pH=7.3 [1]: 90 h
t1/2(2) PBS, pH=7.3 [1]: 355 h
CC50 (CD4+ T-cell (CEM)): 28 ± 7 µM
t1/2(1) CEM [2]: 4.6 h
EC50 (HIV-2(ROD) [3]): 1.1 ± 0.23 µM
EC50 (HIV-2(ROD) [4]): 1.63 ± 0.52 µM
EC50 (HIV-1(IIIB)): 0.5 ± 0.14 µM

CCCCCCCCCCCCCCCC(=O)Oc1ccc(COP(=O)(OCc2ccc(OC(=O)CCCCCCCCCCCCCCC)cc2)OP(=O)(O)OP(=O)(O)OC[C@@H]2C=C[C@H](n3cc(C)c(=O)[nH]c3=O)O2)cc1 [3i, γ-Bis-(4-hexadecanoyloxybenzyl)-d4TTP]
t1/2(1) PLE (pig liver esterase (PLE)): 33 h
t1/2(1) PBS, pH=7.3 [1]: 73 h
t1/2(2) PBS, pH=7.3 [1]: 462 h
CC50 (CD4+ T-cell (CEM)): 61 ± 3 µM
t1/2(1) CEM [2]: 5.3 h
EC50 (HIV-2(ROD) [3]): 0.66 ± 0.08 µM
EC50 (HIV-2(ROD) [4]): 0.72 ± 0.16 µM
EC50 (HIV-1(IIIB)): 0.62 ± 0.3 µM

CCCCOC(=O)N(C)CCN(C)C(=O)Oc1ccc(COP(=O)(OCc2ccc(OC(=O)N(C)CCN(C)C(=O)OCCCC)cc2)OP(=O)(O)OP(=O)(O)OCC2C=CC(n3cc(C)c(=O)[nH]c3=O)O2)cc1 (stereo not drawn) [3o, γ-Bis-(4-(butyl-ethane-1,2-diylbis(methylcarbamate))-oxybenzyl)-d4TTP]
t1/2(1) PBS, pH=7.3 [1]: 27 h

CCCCCCCCOC(=O)N(C)CCN(C)C(=O)Oc1ccc(COP(=O)(OCc2ccc(OC(=O)N(C)CCN(C)C(=O)OCCCCCCCC)cc2)OP(=O)(O)OP(=O)(O)OCC2C=CC(n3cc(C)c(=O)[nH]c3=O)O2)cc1 (stereo not drawn) [3p, γ-Bis-(4-(octyl-ethane-1,2-diylbis(methylcarbamate))-oxybenzyl)-d4TTP]
t1/2(1) PBS, pH=7.3 [1]: 48 h
t1/2(1) CEM [2]: 5.6 h

CCCCCCCCCCCCOC(=O)N(C)CCN(C)C(=O)Oc1ccc(COP(=O)(OCc2ccc(OC(=O)N(C)CCN(C)C(=O)OCCCCCCCCCCCC)cc2)OP(=O)(O)OP(=O)(O)OCC2C=CC(n3cc(C)c(=O)[nH]c3=O)O2)cc1 (stereo not drawn) [3q, γ-Bis-(4-(dodecyl-ethane-1,2-diylbis(methylcarbamate))-oxybenzyl)-d4TTP]
t1/2(1) PBS, pH=7.3 [1]: 48 h

CC(=O)Oc1ccc(COP(=O)(O)OP(=O)(O)OP(=O)(O)OC[C@@H]2C=C[C@H](n3cc(C)c(=O)[nH]c3=O)O2)cc1 [4a, γ-Mono-(4-acetyloxybenzyl)-d4TTP]
t1/2(2) PLE (pig liver esterase (PLE)): 108 h
t1/2(2) PBS, pH=7.3 [1]: 95 h
t1/2(1) CEM [2]: 0.040 h

CCCCCCCCC(=O)Oc1ccc(COP(=O)(O)OP(=O)(O)OP(=O)(O)OC[C@@H]2C=C[C@H](n3cc(C)c(=O)[nH]c3=O)O2)cc1 [4e, γ-Mono-(4-nonanoyloxybenzyl)-d4TTP]
t1/2(2) PLE (pig liver esterase (PLE)): 1.5 h
t1/2(2) PBS, pH=7.3 [1]: 237 h
t1/2(1) CEM [2]: 1.8 h

CCCCCCCCCCCCCCCCCC(=O)Oc1ccc(COP(=O)(O)OP(=O)(O)OP(=O)(O)OC[C@@H]2C=C[C@H](n3cc(C)c(=O)[nH]c3=O)O2)cc1 [4j, γ-Mono-(4-octadecanoyloxybenzyl)-d4TTP]
t1/2(2) PLE (pig liver esterase (PLE)): 57 h
t1/2(2) PBS, pH=7.3 [1]: 637 h
t1/2(1) CEM [2]: 4.6 h

Cc1cn([C@H]2C=C[C@@H](COP(=O)(O)OP(=O)(O)OP(=O)(O)O)O2)c(=O)[nH]c1=O [d4TTP 19, reference compound]
t1/2 in cell extracts ([2]; degradation of the nucleotide in CEM cell extracts): 0.63 h
